Results on 22 compounds are retold here after US11535630B2, “Apelin receptor (APJ) agonists and uses thereof” (Research Triangle Institute, priority 2015, dated 2022).

As usually defined, the EC50 is the concentration needed to bring the measured effect to its halfway point.

For the assay, the target named is T1, apelin receptor (APJ) (Homo sapiens, UniProt P35414).
T1 sequence (P35414 1-380): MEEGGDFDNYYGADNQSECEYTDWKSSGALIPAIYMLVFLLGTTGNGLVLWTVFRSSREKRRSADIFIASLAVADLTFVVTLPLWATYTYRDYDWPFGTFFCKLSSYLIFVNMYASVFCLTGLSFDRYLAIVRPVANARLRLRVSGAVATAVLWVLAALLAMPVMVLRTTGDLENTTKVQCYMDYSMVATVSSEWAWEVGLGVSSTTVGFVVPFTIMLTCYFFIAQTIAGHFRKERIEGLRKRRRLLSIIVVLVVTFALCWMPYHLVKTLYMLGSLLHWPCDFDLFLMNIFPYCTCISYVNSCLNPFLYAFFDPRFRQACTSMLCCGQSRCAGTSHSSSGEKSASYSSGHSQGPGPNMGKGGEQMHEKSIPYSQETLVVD
Description: In vitro apelin agonist activity (methods of Giddings et al., Apelin-13 as positive control). Format: cell-based. As to conditions: in vitro apelin agonist activity, methods of Giddings et al., Apelin-13 as positive control; read-out: EC50 (nM) Ave. An excerpt:
Characterization of the Apelin Agonist Activity of the Compounds
1:39-47, the contents of which are hereby incorporated by reference in its entirety. Using the methods described in Giddings et al. and Apelin-13 as a positive control.
With `COc1cccc(F)c1-c1cc(C(=O)N[C@@H](CCN2CCCCC2)CC(=O)NC2CCC2)nn1C1CCCC1` [compound 372, (3S)-N-cyclobutyl-3-{[1-cyclopentyl-5-(2-fluoro-6-methoxyphenyl)-1H-pyrazol-3-yl]formamido}-5-(piperidin-1-yl)pentanamide], the EC50 turned out to be 90 nM. Consider `O=C(C[C@H](CCN1CCCCC1)NC(=O)c1cc(-c2ccccn2)n(C2CCCC2)n1)NC1CCC1` [compound 375, (3S)-N-cyclobutyl-3-{[1-cyclopentyl-5-(pyridin-2-yl)-1H-pyrazol-3-yl]formamido}-5-(piperidin-1-yl)pentanamide], for which the EC50 was over 10000 nM.

Turning to `COc1cccc(OC)c1-c1cc(C(=O)N[C@@H](CC2CC2)C(=O)NC2CCC2)nn1C1CCCC1` [compound 376, (2S)-N-cyclobutyl-2-{[1-cyclopentyl-5-(2,6-dimethoxyphenyl)-1H-pyrazol-3-yl]formamido}-3-cyclopropylpropanamide], the EC50 is over 10000 nM. On to `COc1cccc(OC)c1-c1cc(C(=O)N[C@@H](CC2CCC2)C(=O)NC2CCC2)nn1C1CCCC1` [compound 377, (2S)-N,3-dicyclobutyl-2-{[1-cyclopentyl-5-(2,6-dimethoxyphenyl)-1H-pyrazol-3-yl]formamido}propanamide], for which the EC50 was over 10000 nM. For `O=C(C[C@H](CCN1CCCCC1)NC(=O)c1cc(-c2cscn2)n(C2CCCC2)n1)NC1CCC1` [compound 378, (3S)-N-cyclobutyl-3-{[1-cyclopentyl-5-(1,3-thiazol-4-yl)-1H-pyrazol-3-yl]formamido}-5-(piperidin-1-yl)pentanamide] the value was 9390 nM. Regarding `COc1cccc(OC)c1-c1cc(C(=O)N[C@@H](CCc2ccccc2)CC(=O)Nc2nccs2)nn1C1CCCC1` [compound 380, (3S)-3-{[1-cyclopentyl-5-(2,6-dimethoxyphenyl)-1H-pyrazol-3-yl]formamido}-5-phenyl-N-(1,3-thiazol-2-yl)pentanamide], the EC50 turned out to be 94 nM.

For the compound `COc1cccc(OC)c1-c1cc(C(=O)N[C@@H](CCc2ccccc2)CC(=O)Nc2nnn[nH]2)nn1C1CCCC1` [compound 381, (3S)-3-{[1-cyclopentyl-5-(2,6-dimethoxyphenyl)-1H-pyrazol-3-yl]formamido}-5-phenyl-N-(1H-1,2,3,4-tetrazol-5-yl)pentanamide], the EC50 came out at 647 nM. For the compound `COc1cccc(OC)c1-c1cc(C(=O)N[C@@H](CCc2ccccc2)CC(=O)NCc2nccs2)nn1C1CCCC1` [compound 382, (3S)-3-{[1-cyclopentyl-5-(2,6-dimethoxyphenyl)-1H-pyrazol-3-yl]formamido}-5-phenyl-N-(1,3-thiazol-2-ylmethyl)pentanamide], the EC50 came out at 3440 nM. On to `COc1cccc(OC)c1-c1cc(C(=O)N[C@@H](CCc2ccccc2)CC(=O)NCc2nnn[nH]2)nn1C1CCCC1` [compound 383, (3S)-3-{[1-cyclopentyl-5-(2,6-dimethoxyphenyl)-1H-pyrazol-3-yl]formamido}-5-phenyl-N-(1H-1,2,3,4-tetrazol-5-ylmethyl)pentanamide], for which the EC50 was 5180 nM. For `COc1cccc(OC)c1-c1cc(C(=O)N[C@@H](CC2CC2)C(=O)O)nn1C1CCCC1` [compound 385, (2S)-2-{[1-cyclopentyl-5-(2,6-dimethoxyphenyl)-1H-pyrazol-3-yl]formamido}-3-cyclopropylpropanoic acid] the value was over 10000 nM; for `COc1cccc(OC)c1-c1cc(C(=O)N[C@@H](CC2CCC2)C(=O)O)nn1C1CCCC1` [compound 386, (2S)-3-cyclobutyl-2-{[1-cyclopentyl-5-(2,6-dimethoxyphenyl)-1H-pyrazol-3-yl]formamido}propanoic acid], 6170 nM; for `COc1cccc(OC)c1-c1cc(C(=O)N[C@@H](CCc2ccccc2)C(=O)NCc2nnn[nH]2)nn1C1CCCC1` [compound 387, (2S)-2-{[1-cyclopentyl-5-(2,6-dimethoxyphenyl)-1H-pyrazol-3-yl]formamido}-4-phenyl-N-(1H-1,2,3,4-tetrazol-5-ylmethyl)butanamide], 8720 nM. `COc1cccc(OC)c1-c1cc(C(=O)N[C@@H](CCc2ccccc2)C(=O)NCc2nccs2)nn1C1CCCC1` [compound 388, (2S)-2-{[1-cyclopentyl-5-(2,6-dimethoxyphenyl)-1H-pyrazol-3-yl]formamido}-4-phenyl-N-(1,3-thiazol-2-ylmethyl)butanamide]: the EC50 was 399 nM. The result for `COc1cccc(OC)c1-c1cc(C(=O)N[C@@H](CCc2ccccc2)C(=O)O)nn1C1CCCC1` [compound 389, (2S)-2-{[1-cyclopentyl-5-(2,6-dimethoxyphenyl)-1H-pyrazol-3-yl]formamido}-4-phenylbutanoic acid] reads over 10000 nM; that for `COc1cccc(OC)c1-c1cc(C(=O)N[C@@H](CCc2ccccc2)Cc2nnn[nH]2)nn1C1CCCC1` [compound 390, 1-cyclopentyl-5-(2,6-dimethoxyphenyl)-N-[(2S)-4-phenyl-1-(1H-1,2,3,4-tetrazol-5-yl)butan-2-yl]-1H-pyrazole-3-carboxamide], 429 nM. As for `COc1cccc(OC)c1-c1cc(C(=O)N[C@H](CC#N)CCc2ccccc2)nn1C1CCCC1` [compound 391, N-[(2S)-1-cyano-4-phenylbutan-2-yl]-1-cyclopentyl-5-(2,6-dimethoxyphenyl)-1H-pyrazole-3-carboxamide], the EC50 worked out at 6340 nM. Take `COc1cccc(OC)c1-c1cc(C(=O)N[C@@H](CCc2ccccc2)CC(N)=O)nn1C1CCCC1` [compound 392, (3S)-3-{[1-cyclopentyl-5-(2,6-dimethoxyphenyl)-1H-pyrazol-3-yl]formamido}-5-phenylpentanamide]: the EC50 is over 10000 nM.

Regarding `COc1cccc(OC)c1-c1cc(C(=O)N[C@@H](CC2CCCC2)C(=O)O)nn1C1CCCC1` [compound 393, (2S)-3-cyclopentyl-2-{[1-cyclopentyl-5-(2,6-dimethoxyphenyl)-1H-pyrazol-3-yl]formamido}propanoic acid], the EC50 turned out to be 424 nM. Consider `COc1cccc(OC)c1-c1cc(C(=O)N[C@@H](CCc2ccccc2)C(=O)Nc2nnn[nH]2)nn1C1CCCC1` [compound 395, (2S)-2-{[1-cyclopentyl-5-(2,6-dimethoxyphenyl)-1H-pyrazol-3-yl]formamido}-4-phenyl-N-(1H-1,2,3,4-tetrazol-5-yl)butanamide], for which the half-maximal effective concentration (EC50) is over 10000 nM.

Consider `COc1cccc(OC)c1-c1cc(C(=O)N[C@@H](CCc2ccccc2)C(=O)Nc2nccs2)nn1C1CCCC1` [compound 396, (2S)-2-{[1-cyclopentyl-5-(2,6-dimethoxyphenyl)-1H-pyrazol-3-yl]formamido}-4-phenyl-N-(1,3-thiazol-2-yl)butanamide], for which the EC50 was over 10000 nM. In the case of `CC(C)c1ccccc1-c1cc(C(=O)N[C@@H](CCN2CCCCC2)CC(=O)NC2CCC2)nn1C1CCCC1` [compound 397, (3S)-N-cyclobutyl-3-({1-cyclopentyl-5-[2-(propan-2-yl)phenyl]-1H-pyrazol-3-yl}formamido)-5-(piperidin-1-yl)pentanamide], the EC50 worked out at 140 nM.

In the case of `COc1cccc(OC)c1-c1cc(C(=O)N[C@H](CCNC2CCC2)CCN2CCCCC2)nn1C1CCCC1` [compound 398, N-[(3R)-1-(cyclobutylamino)-5-(piperidin-1-yl)pentan-3-yl]-1-cyclopentyl-5-(2,6-dimethoxyphenyl)-1H-pyrazole-3-carboxamide], the EC50 was over 10000 nM.
